Measured values published in patent US11077145B2, “Method for mass producing proteins in mesenchymal stem cells” (STEMMEDICARE CO., LTD., priority 2015, dated 2021).
“And” between values parts separate entries of the source, which are not always exact repeats. Identical values can stand only once. Marks after values point to notes of the source that are not given here.

What was measured:
C57BL/6 mice [1] = experiment: Anagen hair model, hair growth score and number of hair follicles; assay type: in vivo, mouse; parameters: hair growth score, Average: scale not given here
Procedure: A comparative test was performed to investigate the effect of hair growth promotion of the mesenchymal stem cell conditioned medium of the present invention using C57BL/6 mice. After induction of the hair follicles of the test animal from the telogen (resting phase) to the […] (growing phase) and depilatione, in order to compare the growth promoting effect of the test substance containing 3% of the mesenchymal stem cell conditioned medium of the present invention, G1 (distilled water control), G2 (placebo control), G3 (test substance) and G4 (positive control-minoxidil 5%) were transdermally administered repeatedly for 14 days respectively, and the hair growth promoting effects were compared with the test substance.

C57BL/6 mice [2] = experiment: Hair growth suppression model (dexamethasone), hair growth score and number of hair follicles; assay type: in vivo, mouse; parameters: hair growth score, Average: scale not given here
Procedure: A comparative test was performed to examine the hair growth effect of the mesenchymal stem cell conditioned medium of the present invention using C57BL/6 mice. After depilating the test animals, the depilatory was treated to induce them from the telogen (resting phase) to the anagen (growing phase), and then to suppress the growth of hair follicles, 0.1% of dexamethanone was transdermally administered for 5 days from 8 days after depilation repeatedly. Next, in order to compare the growth promoting effect of the test substance containing 3% of the mesenchymal stem cell conditioned medium of the present invention, the growth promoting effects were compared with the test substance by transdermally administered repeatedly of G1 (distilled water control), G2 (placebo control), G3 (test substance) and G4 (positive control-minoxidil 5%) for 8 days.

[3] = individual animal average of 3 areas
[4] = individual animal, female, 13th day
[5] = individual animal, histopathological examination
[6] = individual animal, female, 8th day of administration

Structure (SMILES): Nc1cc(N2CCCCC2)nc(N)[n+]1[O-] [G4, Minoxidil]
- hair growth score, Average (C57BL/6 mice [1]; 15th day, female C57BL/6 mice, average of the four scores per animal): 4 (4×) and 3.75 (3×) and 3.5 (3×)
- hair growth score, Total Average (C57BL/6 mice [1]; 15th day, female C57BL/6 mice, group average, transdermal administration for 14 days): 3.78**
- hair growth score, Score 1st (C57BL/6 mice [1]; 15th day, female C57BL/6 mice, individual animal, 1st score): 4 (80~100% (4)) (9×) and 3 (60~79% (3))
- hair growth score, Score 2nd (C57BL/6 mice [1]; 15th day, female C57BL/6 mice, individual animal, 2nd score): 4 (80~100% (4)) (5×) and 3 (60~79% (3)) (5×)
- hair growth score, Score 3rd (C57BL/6 mice [1]; 15th day, female C57BL/6 mice, individual animal, 3rd score): 4 (80~100% (4))
- hair growth score, Score 4th (C57BL/6 mice [1]; 15th day, female C57BL/6 mice, individual animal, 4th score): 4 (80~100% (4)) (7×) and 3 (60~79% (3)) (3×)
- hair growth score, Total Average (C57BL/6 mice [1]; group average, 13th day): 3.27 point
- hair growth score, Total Average (C57BL/6 mice [1]; group average, 15th day): 3.78 point
- number of hair follicles, Total Average (C57BL/6 mice [1]; group average, transdermal for 14 days): 104.70
- number of hair follicles, Average (C57BL/6 mice [1]; [3]): 191.33 and 107.67 and 69.00 and 149.67 and 54.67 and 82.67 and 72.33 and 130.33 and 138.67 and 50.67
- hair growth score, Average (C57BL/6 mice [1]; individual animal average, 13th day): 3.67 (2×) and 4.00 (2×) and 3.33 (2×) and 3.00 and 2.33 and 2.67 (2×)
- hair growth score, Score 1st (C57BL/6 mice [1]; [4]): 3 (60~79% (3)) (4×) and 4 (80~100% (4)) (2×) and 2 (40~59% (2)) (4×)
- hair growth score, Score 2nd (C57BL/6 mice [1]; [4]): 3 (60~79% (3)) (5×) and 4 (80~100% (4)) (2×) and 1 (20~39% (1)) (2×) and 2 (40~59% (2))
- hair growth score, Score 3rd (C57BL/6 mice [1]; [4]): 4 (80~100% (4)) (6×) and 3 (60~79% (3)) (4×)
- hair growth score, Score 4th (C57BL/6 mice [1]; [4]): 4 (80~100% (4)) (5×) and 3 (60~79% (3)) (5×)
- number of hair follicles, Area 1 (C57BL/6 mice [1]; [5]): 232 and 48 and 92 and 135 and 45 and 90 and 71 and 149 and 121 and 53
- number of hair follicles, Area 2 (C57BL/6 mice [1]; [5]): 209 and 135 and 55 and 155 and 50 and 94 and 79 and 126 and 164 and 41
- number of hair follicles, Area 3 (C57BL/6 mice [1]; [5]): 133 and 140 and 60 and 159 and 69 and 64 and 67 and 116 and 131 and 58
- number of hair follicles, Total Average (C57BL/6 mice [2]; group average, transdermal for 8 days): 66.37
- hair growth score, Total Average (C57BL/6 mice [2]; group average, transdermal for 8 days, 8th day): 2.68 points
- number of hair follicles, Average (C57BL/6 mice [2]; [3]): 87.67 and 92.33 and 71.00 and 36.33 and 108.33 and 61.33 and 45.33 and 29.67 and 36.00 and 95.67
- hair growth score, Average (C57BL/6 mice [2]; individual animal average, 8th day of administration): 3.00 (3×) and 1.75 (2×) and 2.25 and 2.75 (2×) and 2.50 and 4.00
- hair growth score, Score 1st (C57BL/6 mice [2]; [6]): 2 (40~59% (2)) (6×) and 1 (20~39% (1)) (2×) and 3 (60~79% (3)) and 4 (80~100% (4))
- hair growth score, Score 2nd (C57BL/6 mice [2]; [6]): 2 (40~59% (2)) (7×) and 1 (20~39% (1)) (2×) and 4 (80~100% (4))
- hair growth score, Score 3rd (C57BL/6 mice [2]; [6]): 4 (80~100% (4)) (4×) and 2 (40~59% (2)) (3×) and 3 (60~79% (3)) (2×) and 1 (20~39% (1))
- hair growth score, Score 4th (C57BL/6 mice [2]; [6]): 4 (80~100% (4)) (7×) and 3 (60~79% (3)) (3×)
- number of hair follicles, Area 1 (C57BL/6 mice [2]; [5]): 70 and 97 and 66 and 53 and 114 and 65 and 78 and 46 and 37 and 95
- number of hair follicles, Area 2 (C57BL/6 mice [2]; [5]): 96 and 87 (2×) and 65 and 37 (2×) and 108 and 52 and 19 and 48
- number of hair follicles, Area 3 (C57BL/6 mice [2]; [5]): 97 and 93 and 82 and 19 and 103 and 67 and 21 and 24 and 23 and 105
